Measurements: PubChem BioAssay (NCI)
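Protocol summary: plate cells (96-well), add compound at 5 concentrations, incubate 48 h, interpolate endpoints linearly. TGI: concentration producing complete growth inhibition.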

Columns and labels:
Experiment in all cases: NCI tumour cell line growth inhibition, 48 h
[1] = system: MDA-MB-231 breast
[2] = system: PC-3 prostate
[3] = system: DU-145 prostate
[4] = system: MDA-MB-435
[5] = system: T-47D breast
[6] = system: HOP-18 NSCLC
[7] = system: DMS 114 small cell lung
[8] = system: SN12K1 renal
[9] = system: DMS 273 small cell lung
[10] = system: XF 498 CNS
[11] = system: DLD-1 colon
[12] = system: P388 leukemia
[13] = system: P388/ADR leukemia
[14] = system: SNB-78 CNS
[15] = system: KM20L2 colon
[16] = system: M19-MEL melanoma
[17] = system: LXFL 529 NSCLC

SMILES	TGI [1] [µM]	TGI [2] [µM]	TGI [3] [µM]	TGI [4] [µM]	TGI [5] [µM]	TGI [6] [µM]	TGI [7] [µM]	TGI [8] [µM]	TGI [9] [µM]	TGI [10] [µM]	TGI [11] [µM]	TGI [12] [µM]	TGI [13] [µM]	TGI [14] [µM]	TGI [15] [µM]	TGI [16] [µM]	TGI [17] [µM]
CCOP(=O)(OCC)C(c1ccc(F)cc1)N(C(=O)NC(F)(F)F)c1cccc(C(F)(F)F)c1 (stereo not given)	> 100	> 100	> 100	> 100	> 100	–	–	–	–	–	–	–	–	–	–	–	–
CCOC(=O)Cn1c(=O)ccn(COCCO)c1=O	> 100	> 100	> 100	> 100	> 100	–	–	–	–	–	–	–	–	–	–	–	–
CCOC(=O)CNC(=O)N(CC)C12CC3CC(CC(C3)C1)C2	–	–	–	–	–	536	274	181	315	342	44.9	260	421	474	223	380	–
CC1CCCCNC1=S (stereo not given)	> 10	> 10	> 10	> 10	> 10	–	–	–	–	–	–	–	–	–	–	–	–
COCCCNc1nc(N)c(C#N)c(C#N)c1C#N	> 10	> 10	> 10	> 10	> 10	–	–	–	–	–	–	–	–	–	–	–	–
CCOC(=O)c1ccc(N[C@@H]2c3cc4c(cc3C(c3cc(OC)c(O)c(OC)c3)[C@H]3C(=O)OCC32)OCO4)cc1O (stereo not given in full)	–	–	–	–	–	> 54.4	2.03	11.3	1.77	16.9	4.58	0.902	0.324	> 100	> 22.3	> 55.1	–
C[C@@H]1Nc2cc(NC(=O)OCCF)nc(N)c2N=C1c1ccccc1	–	> 100	–	< 0.0001	> 100	–	–	–	–	–	–	–	–	–	–	–	–
Clc1ccc(C[P+](c2ccccc2)(c2ccccc2)c2ccccc2)c(Cl)c1	–	–	–	–	–	–	6	–	10.1	4.4	–	–	–	11	18.9	11.5	12.5
COc1ccc(S(=O)(=O)c2ccccc2[N+](=O)[O-])cc1	–	–	–	–	–	> 100	> 100	–	> 100	–	> 100	–	–	–	> 100	> 100	> 100
CC1CC2=C(S(=O)(=O)c3ccccc3)CC(S(=O)(=O)c3ccccc3)(S(=O)(=O)c3ccccc3)CC21 (stereo not given)	–	–	–	–	–	> 100	> 100	–	> 100	> 100	> 100	–	–	–	> 100	–	–
